According to PubChem BioAssay AID1963825 (Molecular Pharmacology Branch, DTP, NCI, 2024):

Assay: Anticancer human tumor 997537-175-T-J1-PDC patient-derived colon adenocarcinoma cell line growth inhibition [POLQ]
Details: 997537-175-T-J1-PDC complex spheroid viability, combination with POLQ inhibitors; for IC50: curve of first compound; for viability, T/C: stronger effect = lower value
Outline: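 Growth inhibition in 3D: complex spheroids (tumor PDC, HUVEC, MSC) treated with POLQ inhibitor combinations; where Cmax unknown, highest tested concentration 10 microM, except SN-38 at 1 microM.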

[1] = second compound 0.0316 µM, first compound 0.0316 µM
[2] = second compound 0.0316 µM, first compound 0.1 µM
[3] = second compound 0.0316 µM, first compound 0.316 µM
[4] = second compound 0.0316 µM, first compound 1 µM
[5] = second compound 0.0316 µM, first compound 3.16 µM
[6] = second compound 0.0316 µM, first compound 10 µM
[7] = second compound 0.1 µM, first compound 0.0316 µM
[8] = second compound 0.1 µM, first compound 0.1 µM
[9] = second compound 0.1 µM, first compound 0.316 µM
[10] = second compound 0.1 µM, first compound 1 µM
[11] = second compound 0.1 µM, first compound 3.16 µM
[12] = second compound 0.1 µM, first compound 10 µM
[13] = second compound 0.316 µM, first compound 0.0316 µM
[14] = second compound 0.316 µM, first compound 0.1 µM
[15] = second compound 0.316 µM, first compound 0.316 µM
[16] = second compound 0.316 µM, first compound 1 µM
[17] = second compound 0.316 µM, first compound 3.16 µM
[18] = second compound 0.316 µM, first compound 10 µM
[19] = second compound 1 µM, first compound 0.0316 µM
[20] = second compound 1 µM, first compound 0.1 µM
[21] = second compound 1 µM, first compound 0.316 µM
[22] = second compound 1 µM, first compound 1 µM
[23] = second compound 1 µM, first compound 3.16 µM
[24] = second compound 1 µM, first compound 10 µM
[25] = second compound 3.16 µM, first compound 0.0316 µM
[26] = second compound 3.16 µM, first compound 0.1 µM
[27] = second compound 3.16 µM, first compound 0.316 µM
[28] = second compound 3.16 µM, first compound 1 µM
[29] = second compound 3.16 µM, first compound 3.16 µM
[30] = second compound 3.16 µM, first compound 10 µM
[31] = second compound 10 µM, first compound 0.0316 µM
[32] = second compound 10 µM, first compound 0.1 µM
[33] = second compound 10 µM, first compound 0.316 µM
[34] = second compound 10 µM, first compound 1 µM
[35] = second compound 10 µM, first compound 3.16 µM
[36] = second compound 10 µM, first compound 10 µM
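Also: luminescence signal used as a surrogate for viable cells; spheroids exposed to drugs for seven days before readout.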

## Nc1ccn(C2OC(CO)C(O)C2(F)F)c(=O)n1 (stereo unspecified) + Cc1cccc(N(C)C(=O)C2C(O)CCN2c2nc(C)cc(C(F)(F)F)c2C#N)c1
Second compound 0.0316 µM
  IC50: > 10 µM
Second compound 0.1 µM
  IC50: > 10 µM
Second compound 0.316 µM
  IC50: > 10 µM
Second compound 1 µM
  IC50: > 10 µM
Second compound 3.16 µM
  IC50: > 10 µM
Second compound 10 µM
  IC50: > 10 µM
[1]
  viability, T/C: 96.2%
[2]
  viability, T/C: 99.7%
[3]
  viability, T/C: 91.8%
[4]
  viability, T/C: 89.8%
[5]
  viability, T/C: 57.8%
[6]
  viability, T/C: 77%
[7]
  viability, T/C: 106%
[8]
  viability, T/C: 91.5%
[9]
  viability, T/C: 85.1%
[10]
  viability, T/C: 67.1%
[11]
  viability, T/C: 90.5%
[12]
  viability, T/C: 52.8%
[13]
  viability, T/C: 91.4%
[14]
  viability, T/C: 102%
[15]
  viability, T/C: 79.3%
[16]
  viability, T/C: 76.7%
[17]
  viability, T/C: 80.4%
[18]
  viability, T/C: 63.5%
[19]
  viability, T/C: 91.8%
[20]
  viability, T/C: 102%
[21]
  viability, T/C: 73.7%
[22]
  viability, T/C: 68.4%
[23]
  viability, T/C: 66%
[24]
  viability, T/C: 66.7%
[25]
  viability, T/C: 95.3%
[26]
  viability, T/C: 103%
[27]
  viability, T/C: 90.4%
[28]
  viability, T/C: 92.5%
[29]
  viability, T/C: 86.1%
[30]
  viability, T/C: 70.7%
[31]
  viability, T/C: 94.8%
[32]
  viability, T/C: 97.2%
[33]
  viability, T/C: 96.6%
[34]
  viability, T/C: 86.9%
[35]
  viability, T/C: 47.2%
[36]
  viability, T/C: 82%

## C=CC(=O)N1CCN(c2nc(=O)n(-c3c(C)ccnc3C(C)C)c3nc(-c4c(O)cccc4F)c(F)cc23)C(C)C1 (stereo unspecified) + Nc1ccc(C#CCN(C(=O)Cc2ncc(C(F)(F)F)cc2C(F)(F)F)c2ccc(F)cc2)nn1
Second compound 0.0316 µM
  IC50: > 10 µM
Second compound 0.1 µM
  IC50: > 10 µM
Second compound 0.316 µM
  IC50: > 10 µM
Second compound 1 µM
  IC50: > 10 µM
Second compound 3.16 µM
  IC50: > 10 µM
Second compound 10 µM
  IC50: > 10 µM
[1]
  viability, T/C: 106%
[2]
  viability, T/C: 97.1%
[3]
  viability, T/C: 95.4%
[4]
  viability, T/C: 108%
[5]
  viability, T/C: 93.8%
[6]
  viability, T/C: 100%
[7]
  viability, T/C: 103%
[8]
  viability, T/C: 91.1%
[9]
  viability, T/C: 102%
[10]
  viability, T/C: 96.7%
[11]
  viability, T/C: 111%
[12]
  viability, T/C: 107%
[13]
  viability, T/C: 96.6%
[14]
  viability, T/C: 102%
[15]
  viability, T/C: 103%
[16]
  viability, T/C: 101%
[17]
  viability, T/C: 90.9%
[18]
  viability, T/C: 94%
[19]
  viability, T/C: 102%
[20]
  viability, T/C: 111%
[21]
  viability, T/C: 109%
[22]
  viability, T/C: 97.2%
[23]
  viability, T/C: 96.9%
[24]
  viability, T/C: 97.6%
[25]
  viability, T/C: 96.3%
[26]
  viability, T/C: 106%
[27]
  viability, T/C: 103%
[28]
  viability, T/C: 96.8%
[29]
  viability, T/C: 106%
[30]
  viability, T/C: 98.2%
[31]
  viability, T/C: 101%
[32]
  viability, T/C: 106%
[33]
  viability, T/C: 104%
[34]
  viability, T/C: 95.3%
[35]
  viability, T/C: 97.6%
[36]
  viability, T/C: 90.8%

## O=c1[nH]cc(F)c(=O)[nH]1 + Cc1cccc(N(C)C(=O)C2C(O)CCN2c2nc(C)cc(C(F)(F)F)c2C#N)c1
Second compound 0.0316 µM
  IC50: > 10 µM
Second compound 0.1 µM
  IC50: > 10 µM
Second compound 0.316 µM
  IC50: > 10 µM
Second compound 1 µM
  IC50: > 10 µM
Second compound 3.16 µM
  IC50: > 10 µM
Second compound 10 µM
  IC50: > 10 µM
[1]
  viability, T/C: 84.2%
[2]
  viability, T/C: 109%
[3]
  viability, T/C: 95.8%
[4]
  viability, T/C: 96.7%
[5]
  viability, T/C: 94.6%
[6]
  viability, T/C: 79.7%
[7]
  viability, T/C: 95.8%
[8]
  viability, T/C: 87.7%
[9]
  viability, T/C: 103%
[10]
  viability, T/C: 108%
[11]
  viability, T/C: 103%
[12]
  viability, T/C: 98.4%
[13]
  viability, T/C: 95%
[14]
  viability, T/C: 96%
[15]
  viability, T/C: 112%
[16]
  viability, T/C: 98.4%
[17]
  viability, T/C: 94.9%
[18]
  viability, T/C: 83.3%
[19]
  viability, T/C: 104%
[20]
  viability, T/C: 82.8%
[21]
  viability, T/C: 94.7%
[22]
  viability, T/C: 87.5%
[23]
  viability, T/C: 87.3%
[24]
  viability, T/C: 91.5%
[25]
  viability, T/C: 95%
[26]
  viability, T/C: 99%
[27]
  viability, T/C: 98.8%
[28]
  viability, T/C: 87.8%
[29]
  viability, T/C: 95.3%
[30]
  viability, T/C: 79.6%
[31]
  viability, T/C: 93.1%
[32]
  viability, T/C: 96.4%
[33]
  viability, T/C: 103%
[34]
  viability, T/C: 95.1%
[35]
  viability, T/C: 89.8%
[36]
  viability, T/C: 71.8%
